In paper PMC4038554, “Human CD4^+ T Cell Responses to the Dog Major Allergen Can f 1 and Its Human Homologue Tear Lipocalin Resemble Each Other” (PLoS ONE, 2014):
Values joined by “and” are separate entries in the source; they are usually repeats but may differ in a detail not shown here. Equal entries are not always repeated. Where two headings read alike, the source gives them in different places.

How the values were obtained:
DRB1*0401 = DRB1*0401 (Homo sapiens, UniProt P01903+P01911, A100K/A169T/F76Y/I96L/K127E/L162R/M171V/N62H/P40V/Q125Y/R42H/S133A/S149N/S66Y/V115G/V209L/W38E); assay: HLA class II peptide-binding assay (competitive ELISA); settings: immunopurified HLA, reference peptide IC50 8 nM, ratio ≤20 high affinity, 20–200 moderate affinity
DRB1*0101 = DRB1*0101 (Homo sapiens, UniProt P01903+P01911, A100R/D57E/F55L/F60I/F76Y/I96L/L162R/M171V/P40L/Q125E/R42F/V115G/Y59C); assay: as above; settings: immunopurified HLA, reference peptide IC50 3 nM, ratio ≤20 high affinity, 20–200 moderate affinity
DRB1*0301 = DRB1*0301 (Homo sapiens, UniProt P01903+P01911, A100K/A102G/A103R/A169T/F55Y/I96L/K41T/L162R/M171V/P40S/Q125H/Q178H/Q39Y/R42S/S66N/T106N/T262R/W38E/Y61H); assay: as above; settings: immunopurified HLA, reference peptide IC50 423 nM, ratio ≤20 high affinity, 20–200 moderate affinity
[1] = tested on: CD25-depleted PBMCs (CD4+ T cells); assay: Generation of peptide-specific CD4+ T cell lines with the split-well method (frequency of specific TCLs); type: cell-based, human; settings: for positive specific TCLs out of 30 replicate wells per subject: peptides at 2 µM, 10^5 PBMCs per well, mean±SEM, SEM; for estimated average precursor frequency of peptide-specific T cells: estimated from TCL frequencies, assuming 30% CD4+ T cells in PBMCs
Method: After isolating peripheral-blood mononuclear cells (PBMCs) by Ficoll-Paque Plus density gradient centrifugation (GE Healthcare Biosciences, Uppsala, Sweden), CD4^+CD25high regulatory T cells were depleted with anti-CD25-magnetic beads (Miltenyi Biotec, Bergisch Gladbach, Germany), to enhance the induction of both autoreactive and allergen-reactive CD4^+ T cell responses, as previously described, [34].The CD25-depleted PBMCs were seeded in 96-well U-bottomed plates (Corning Incorporated, Corning, USA; 10^5 PBMCs per well) in the presence of pooled Can f 1 or TL peptides (each peptide at 2 µM, 30 wells per a peptide pool), or the HA peptide (30 wells) in a 150 µl volume of RPMI 1640 culture medium supplemented with 2 mM L-glutamine, 20 µM 2-mercaptoethanol, 1 mM sodium pyruvate, nonessential amino acids, 100 IU/ml penicillin, 100 µg/ml streptomycin, 10 mM HEPES (all from Lonza, Verviers, Belgium) and 5% inactivated human AB serum (Sigma-Aldrich, St. Louis, MO). On day 5, 50 µl of fresh medium supplemented with 10 IU/ml of IL-2 (Strathmann Biotech, Hannover, Germany) was added to the cultures. On day 7, half of the culture medium was replaced without IL-2. On day 10, half of the cells in the cultures were split into daughter plates for testing specificity by stimulating the cells with or without the pooled peptides (each peptide at 2 µM) together with autologous γ-irradiated (3000 rad) PBMCs (5×10^5) as antigen-presenting cells. After an incubation of 72 h, [3H]thymidine was added (1 µCi per well; GE Healthcare, Little Chalfont, UK), and after an additional 16 h, the cells were harvested onto glass fiber filters on day 14 (Wallac, Turku, Finland). Radioactivity was measured by scintillation counting (Wallac Micro Beta 1540) and the results were expressed as counts per minute (CPM). The stimulation indices (SI; CPM in the presence of antigen divided by CPM in the absence of antigen) and CPM differences between stimulated and unstimulated wells (ΔCPM) were determined. On the same day, positive cultures (ΔCPM>2000 and SI>2) were restimulated in 48-well plates with autologous γ-irradiated PBMCs (10^6/well), 2 µM of the peptides and 25 IU/ml of IL-2. On day 28, the established TCLs were propagated once more with peptides, IL-2 and PBMCs. After stimulations, half of the culture medium was replaced with fresh medium supplemented with IL-2 every 2–3 days. The peptide specificity of TCLs was defined as described below.
T cell proliferation assays were set in duplicates in 96-well U-bottomed plates with 2.5×10^4 cultured T cells, 5×10^4 autologous γ-irradiated (3000 rad) PBMCs as APCs, and antigens as indicated. In order to determine the epitope specificity of the established TCLs induced with peptide pools, the T cell lines were tested with each of the three individual peptides in the pool at 10 µM on day 28. Proliferation was measured by radionuclide uptake (see above). […] On day 42, peptide-specific TCLs were tested with individual Can f 1 peptides, as well as their TL homologues, at several concentrations up to 10 µM. The functional T cell receptor (TCR) avidities of the TCLs for a peptide were assessed by determining effective concentration 50 (EC50) values (i.e., the concentration of a peptide needed to induce a half-maximal proliferative response) from the dose-response curves of individual TCLs.

DRB1*1501 = DRB1*1501 (Homo sapiens, UniProt P01903+P01911); assay: HLA class II peptide-binding assay (competitive ELISA); settings: immunopurified HLA, reference peptide IC50 775 nM, ratio ≤20 high affinity, 20–200 moderate affinity
DRB3 = assay: as above; set-up: species or system human
DRB1*1301 = DRB1*1301 (Homo sapiens, UniProt P01903+P01911, A100E/A169T/K41T/L162R/M171V/P40S/Q125H/Q178H/Q39Y/Q99D/R42S/S66N/T262R/W38E/Y61H); assay: as above; settings: immunopurified HLA, reference peptide IC50 208 nM, ratio ≤20 high affinity, 20–200 moderate affinity
DRB1*1101 = DRB1*1101 (Homo sapiens, UniProt P01903+P01911, A100R/A169T/A87E/I96F/K41T/L162R/M171V/P40S/Q125H/Q178H/Q39Y/Q99D/R42S/S66Y/T262R/V115G/W38E); assay: as above; settings: immunopurified HLA, reference peptide IC50 50 nM, ratio ≤20 high affinity, 20–200 moderate affinity
DRB1*0701 = DRB1*0701 (Homo sapiens, UniProt P01903+P01911, A100R/A102G/A103Q/D57E/D86V/E43K/F76Y/K127E/L162R/M171V/P40G/Q125H/Q99D/R33Q/R42Y/R54Q/S133A/S66F/T210M/V115G/Y107V/Y59L/Y89S); assay: as above; settings: immunopurified HLA, reference peptide IC50 5 nM, ratio ≤20 high affinity, 20–200 moderate affinity
DRB4 = assay: as above; set-up: species or system human
DRB5 = assay: as above; set-up: species or system human
[2] = tested on: peptide-specific CD4+ T cell lines; assay: Proliferation assay, functional TCR avidity (EC50) of peptide-specific TCLs; type: cell-based, human
[3] = DRB3, competitive ELISA, immunopurified HLA, reference peptide IC50 60 nM, ratio ≤20 high affinity, 20–200 moderate affinity
[4] = DRB4, competitive ELISA, immunopurified HLA, reference peptide IC50 8 nM, ratio ≤20 high affinity, 20–200 moderate affinity
[5] = DRB5, competitive ELISA, immunopurified HLA, reference peptide IC50 7 nM, ratio ≤20 high affinity, 20–200 moderate affinity

| Sequence | relative binding ratio (IC50 of the test peptide divided by IC50 of the reference peptide) (DRB1*0401) | relative binding ratio (IC50 of the test peptide divided by IC50 of the reference peptide) (DRB1*0101) | relative binding ratio (IC50 of the test peptide divided by IC50 of the reference peptide) (DRB1*0301) | positive specific TCLs out of 30 replicate wells per subject ([1]; allergic subjects) [%] | positive specific TCLs out of 30 replicate wells per subject ([1]; nonallergic subjects) [%] | relative binding ratio (IC50 of the test peptide divided by IC50 of the reference peptide) (DRB1*1501) | relative binding ratio (IC50 of the test peptide divided by IC50 of the reference peptide) (DRB3; [3]) | relative binding ratio (IC50 of the test peptide divided by IC50 of the reference peptide) (DRB1*1301) | relative binding ratio (IC50 of the test peptide divided by IC50 of the reference peptide) (DRB1*1101) | relative binding ratio (IC50 of the test peptide divided by IC50 of the reference peptide) (DRB1*0701) | relative binding ratio (IC50 of the test peptide divided by IC50 of the reference peptide) (DRB4; [4]) | relative binding ratio (IC50 of the test peptide divided by IC50 of the reference peptide) (DRB5; [5]) | percentage of high-avidity (EC50<0.1 µM) TCLs [2] | estimated average precursor frequency of peptide-specific T cells ([1]; allergic subjects) [per 10^6 CD4^+ T cells] | estimated average precursor frequency of peptide-specific T cells ([1]; nonallergic subjects) [per 10^6 CD4^+ T cells] | relative binding ratio (IC50 of the test peptide divided by IC50 of the reference peptide) (DRB3) | relative binding ratio (IC50 of the test peptide divided by IC50 of the reference peptide) (DRB4) | relative binding ratio (IC50 of the test peptide divided by IC50 of the reference peptide) (DRB5) |
| --- | --- | --- | --- | --- | --- | --- | --- | --- | --- | --- | --- | --- | --- | --- | --- | --- | --- | --- |
| LEAKVTMLISGRCQEVK [pTL3, Tear lipocalin peptide p49–65] | 82 | 2 | 0.4 | 1.89±0.57 | 4.2±0.68 | 1 | 8 | 3 | 5 | 0.2 | 312 | 4 | – | – | – | – | – | – |
| PGKYTAYEGQRVVFIQ [pC4, Can f 1 peptide p73–88] | 82 | 1 | 13 | 5.0±1.15 | 4.2±1.61 | 0.4 | 61 | 56 | 133 | 1 | 722 | 14 | – | – | – | – | – | – |
| PKYVKQNTLKLAT [HA, influenza hemagglutinin (HA) peptide (amino acids 306–318), viral control peptide, reference compound] | – | – | – | 12.68±10.98 | 8.60±13.37 | – | – | – | – | – | – | – | 25.0% and 22.6% | 4.2 | 2.9 | > 167 | > 1 179 | 1 |
